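Test compounds were applied to cells in 96-well plates for 48 hours at 5 doses. GI50 = concentration required for 50% inhibition of growth. TGI is the concentration that stops growth completely.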
Assays:
Test in all cases: NCI anticancer screen, dose series, 48 h
RXF 393 renal = tested on: RXF 393 renal
NCI-H23 lung = tested on: NCI-H23 lung
SNB-19 CNS = tested on: SNB-19 CNS
UACC-257 melanoma = tested on: UACC-257 melanoma
HOP-62 NSCLC = tested on: HOP-62 NSCLC
HCC-2998 colon = tested on: HCC-2998 colon
A498 renal = tested on: A498 renal
SK-MEL-2 melanoma = tested on: SK-MEL-2 melanoma
SN12C renal = tested on: SN12C renal
SF-268 CNS = tested on: SF-268 CNS

SMILES | GI50 (RXF 393 renal) [µM] | TGI (RXF 393 renal) [µM] | GI50 (NCI-H23 lung) [µM] | TGI (NCI-H23 lung) [µM] | GI50 (SNB-19 CNS) [µM] | TGI (SNB-19 CNS) [µM] | GI50 (UACC-257 melanoma) [µM] | TGI (UACC-257 melanoma) [µM] | GI50 (HOP-62 NSCLC) [µM] | TGI (HOP-62 NSCLC) [µM] | GI50 (HCC-2998 colon) [µM] | TGI (HCC-2998 colon) [µM] | GI50 (A498 renal) [µM] | TGI (A498 renal) [µM] | GI50 (SK-MEL-2 melanoma) [µM] | TGI (SK-MEL-2 melanoma) [µM] | GI50 (SN12C renal) [µM] | TGI (SN12C renal) [µM] | GI50 (SF-268 CNS) [µM] | TGI (SF-268 CNS) [µM]
CC[C@]12C=CCN3CC[C@@]4(c5ccc(OC)cc5N(C)[C@H]4[C@@](O)(C(=O)OC)[C@@H]1OC(=O)CCCC[P+](c1ccccc1)(c1ccccc1)c1ccccc1)[C@@H]32 | 0.635 | 2.72 | 1.07 | 10.5 | 0.384 | 2.92 | 0.279 | 1.09 | 2.94 | 13.7 | 0.42 | 2.71 | 2.84 | 10.4 | 0.478 | 1.45 | 0.414 | 8.26 | 0.644 | 3.98
O=S1(=O)OCc2ccccc21 |  | > 100 |  | > 100 |  | > 100 |  | > 100 |  | 42.3 |  | > 100 |  | > 100 |  | > 100 |  | > 100 |  | > 100
OCCNC(=S)Nc1ccc(-c2nc(N3C[C@H]4CC[C@@H](C3)O4)c3cccn3n2)cc1 | < 0.0135 | 0.131 | 0.0798 | 16.7 | 0.189 | 13.2 | 0.0354 | 0.467 | 0.0324 | 0.662 | 0.0779 | 18.6 | < 0.01 | 0.0307 | 0.0637 | 0.579 | 0.0617 | 16.9 | 0.079 | 25.8
Nc1c(C(=O)c2cccc(C(O)(CO)CO)c2)cnn1-c1ccc(F)cc1 | > 25 | > 25 | > 25 | > 25 | > 25 | > 25 | > 25 | > 25 | > 25 | > 25 | > 25 | > 25 | > 25 | > 25 | > 25 | > 25 | > 25 | > 25 | > 25 | > 25
Cc1ccc(C(=O)Nc2ccc(CN3CCN(C)CC3)c(C(F)(F)F)c2)cc1C#Cc1cnc(N)c2ccc(C#N)cc12 | 0.0407 | 5.82 | 1.1 | 18.2 | 3.2 | 19.9 | 0.332 | > 35 | 1.7 | 22.9 | 9.41 | > 50 | 0.133 | 49.3 | 0.0327 | 9.51 | 0.0164 | 3.07 | 0.206 | 17.2
COc1ccc2c3c(ccc2c1)NC(C(=O)O)CC3 (stereo not given) |  | > 100 |  | > 100 |  | > 100 |  | > 100 |  | > 100 |  | > 100 |  | > 100 |  | > 100 |  | > 100 |  | > 100
Cc1ccccc1NC(=O)N/C(N)=N/c1nc(C)c(C)s1 | 0.187 | 0.907 | 0.519 | > 100 | 0.283 | 52.7 | > 100 | > 100 | 0.404 | > 65.6 | 0.712 | > 100 | 0.125 | 0.803 | 0.61 | > 100 | 1.23 | > 100 | 15.9 | > 100

From PubChem BioAssay (NCI)
